Data from patent publication US20260345621A1, “GABAA RECEPTOR MODULATORS AND USES THEREOF” (Engrail Therapeutics, Inc., priority 2022, published 2026).
Entries after “also recorded” stand apart in the source; their conditions may differ.

Key:
[1] = tested on: alertness/sedation; assay: MOAA/S (Modified Observer's Assessment Alertness/Sedation); assay type: in vivo, human (healthy volunteers)
Procedure: (§1) A clinical study was developed to evaluate safety, tolerability, pharmacokinetics, and pharmacodynamics of Compound 1 at plasma steady-state in 40 healthy human volunteers. Compound 1 (provided as Compound 1 phosphate) was administered to participants as multiple ascending doses of 0.5 mg (N=6), 1.0 mg (N=6), 1.5 mg (N=6), 2.0 mg (N=6), or 5.0 mg (N=6) once daily (QD) for 12 days.
Safety and tolerability of Compound 1 were assessed through listings and summaries by Compound 1 dose versus placebo (observed and change from baseline where applicable) for the following measures: treatment-emergent adverse events (TEAEs), clinical laboratory evaluation, vital signs, electrocardiogram, physical examination, pregnancy test, C-SSRS, and MOAA/S (Modified Observer's Assessment Alertness/Sedation). Continuous safety data were summarized with descriptive statistics (n, arithmetic mean, standard deviation (SD), median, minimum, and maximum) by dose level. Categorical safety data were summarized with incidence counts and percentages by dose level.
No clear difference from placebo in sedation across ascending Cohorts according to objective MOAA/S (Modified Observer's Assessment Alertness/Sedation) scoring was observed. A decrease in the MOAA/S score for alertness/sedation indicates impaired participant alertness and increased sedation as objectively determined by a clinician. […] For Compound 1 5.0 mg, a MOAA/S score of 2 (“Responds only after mild prodding or shaking”) was assessed for 1 participant. For the other participants in the Compound 1 5.0 mg Cohort and all other Cohorts, MOAA/S scores were above 3 indicating no difference from placebo in sedation across ascending Cohorts.

[2] = tested on: EEG power; assay: Quantitative electroencephalography (qEEG); assay type: in vivo, human (healthy volunteers)
Procedure: as §1
Pharmacodynamic analyses included the NEUROCART® assessments, cognitive assessments Visual Verbal Learning Task (VVLT), and quantitative electroencephalography (qEEG). All PD analyses were based on the PD Analysis Set. For all PD endpoints, the baseline was calculated as average of the Day −1 measurements.
NEUROCART®, VVLT, and qEEG assessments were listed and summarized (absolute and change from baseline) using descriptive statistics at baseline and at each post-baseline time point. To establish whether significant treatment effects could be detected on the repeatedly measured NEUROCART® parameters, each parameter was analyzed with a mixed model analysis of covariance (ANCOVA) with treatment, time, and treatment by time as fixed factors, participant as a random factor, and the (average) baseline measurement as a covariate.

[3] = tested on: anxiety (elevated plus maze); assay: Elevated plus maze (EPM)
[4] = target: human GABAA receptor α1/β3/γ2 (Homo sapiens, UniProt P14867+P18507); assay: SyncroPatch platform, PAM mode, GABAA α1/β3/γ2
Sequence of human GABAA receptor α1/β3/γ2 (P14867 28-456): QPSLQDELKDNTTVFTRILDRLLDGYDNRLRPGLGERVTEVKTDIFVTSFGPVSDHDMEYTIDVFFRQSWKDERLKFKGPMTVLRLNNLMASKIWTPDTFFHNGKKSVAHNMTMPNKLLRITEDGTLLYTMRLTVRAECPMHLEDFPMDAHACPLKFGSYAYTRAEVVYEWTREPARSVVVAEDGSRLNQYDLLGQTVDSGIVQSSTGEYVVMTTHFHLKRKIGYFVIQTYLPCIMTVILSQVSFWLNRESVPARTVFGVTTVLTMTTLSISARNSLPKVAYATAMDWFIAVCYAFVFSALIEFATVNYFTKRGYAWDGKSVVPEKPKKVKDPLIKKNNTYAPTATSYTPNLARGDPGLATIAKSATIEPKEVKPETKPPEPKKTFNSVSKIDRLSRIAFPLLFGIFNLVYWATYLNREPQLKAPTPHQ
Sequence of human GABAA receptor α1/β3/γ2 (P18507 40-475): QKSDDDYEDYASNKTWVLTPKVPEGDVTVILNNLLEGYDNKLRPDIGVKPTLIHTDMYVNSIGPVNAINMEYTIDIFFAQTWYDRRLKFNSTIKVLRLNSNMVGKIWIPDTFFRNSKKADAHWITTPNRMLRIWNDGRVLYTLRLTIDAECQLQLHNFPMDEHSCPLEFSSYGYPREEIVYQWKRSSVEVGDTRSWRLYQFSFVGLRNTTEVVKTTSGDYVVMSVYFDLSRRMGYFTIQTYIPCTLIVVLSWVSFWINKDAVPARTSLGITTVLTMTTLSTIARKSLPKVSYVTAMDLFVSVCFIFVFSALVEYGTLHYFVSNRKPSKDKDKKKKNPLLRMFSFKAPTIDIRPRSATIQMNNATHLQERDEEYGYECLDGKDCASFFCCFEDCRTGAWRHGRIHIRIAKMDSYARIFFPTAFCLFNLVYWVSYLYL
Sequence of human GABAA receptor α1/β3/γ2 (P28472 26-473 partner): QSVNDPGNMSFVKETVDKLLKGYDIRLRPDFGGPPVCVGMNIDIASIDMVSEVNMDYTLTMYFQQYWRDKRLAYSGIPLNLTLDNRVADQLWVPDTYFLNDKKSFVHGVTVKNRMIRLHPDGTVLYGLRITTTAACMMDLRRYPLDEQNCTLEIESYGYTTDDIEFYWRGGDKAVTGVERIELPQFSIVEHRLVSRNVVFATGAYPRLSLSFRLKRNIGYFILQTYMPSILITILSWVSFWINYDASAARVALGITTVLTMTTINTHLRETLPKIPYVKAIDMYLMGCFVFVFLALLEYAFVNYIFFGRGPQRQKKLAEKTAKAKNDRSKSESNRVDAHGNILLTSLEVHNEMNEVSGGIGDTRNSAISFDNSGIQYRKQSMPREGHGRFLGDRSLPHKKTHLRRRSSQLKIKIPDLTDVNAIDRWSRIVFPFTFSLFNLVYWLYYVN

[5] = target: human GABAA receptor α2/β2/γ2 (Homo sapiens, UniProt P18507+P47869); assay: SyncroPatch platform, PAM mode, GABAA α2/β2/γ2
Sequence of human GABAA receptor α2/β2/γ2 (P47869 29-451): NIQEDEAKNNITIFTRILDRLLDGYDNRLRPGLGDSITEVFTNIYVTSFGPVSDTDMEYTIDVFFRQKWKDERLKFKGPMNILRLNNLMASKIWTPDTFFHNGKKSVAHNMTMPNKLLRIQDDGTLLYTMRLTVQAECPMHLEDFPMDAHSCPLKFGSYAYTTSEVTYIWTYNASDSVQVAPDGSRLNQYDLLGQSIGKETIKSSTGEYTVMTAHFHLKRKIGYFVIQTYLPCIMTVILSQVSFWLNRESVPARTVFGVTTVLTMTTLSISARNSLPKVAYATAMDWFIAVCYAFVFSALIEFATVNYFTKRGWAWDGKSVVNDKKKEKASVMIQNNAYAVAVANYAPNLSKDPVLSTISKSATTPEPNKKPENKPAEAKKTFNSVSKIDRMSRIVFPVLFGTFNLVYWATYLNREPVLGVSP
Sequence of human GABAA receptor α2/β2/γ2 (P18507 40-475): as the sequence (P18507 40-475) above
Sequence of human GABAA receptor α2/β2/γ2 (P47870 25-512 partner limits assumed): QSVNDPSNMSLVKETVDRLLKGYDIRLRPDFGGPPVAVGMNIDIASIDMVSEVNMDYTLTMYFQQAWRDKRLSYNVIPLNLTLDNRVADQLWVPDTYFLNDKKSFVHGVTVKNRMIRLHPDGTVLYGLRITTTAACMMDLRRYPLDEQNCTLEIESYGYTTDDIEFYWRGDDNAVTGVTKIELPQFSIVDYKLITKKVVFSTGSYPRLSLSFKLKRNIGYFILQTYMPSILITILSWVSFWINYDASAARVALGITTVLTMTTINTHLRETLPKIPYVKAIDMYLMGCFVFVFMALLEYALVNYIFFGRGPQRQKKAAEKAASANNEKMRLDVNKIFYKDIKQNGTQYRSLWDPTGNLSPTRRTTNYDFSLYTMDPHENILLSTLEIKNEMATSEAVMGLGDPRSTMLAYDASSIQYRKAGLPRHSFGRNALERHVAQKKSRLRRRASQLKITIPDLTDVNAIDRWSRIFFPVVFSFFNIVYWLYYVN

[6] = target: human GABAA receptor α2/β3/γ2 (Homo sapiens, UniProt P18507+P47869); assay: SyncroPatch platform, PAM mode, GABAA α2/β3/γ2
Sequence of human GABAA receptor α2/β3/γ2 (P47869 29-451): as the sequence (P47869 29-451) above
Sequence of human GABAA receptor α2/β3/γ2 (P18507 40-475): as the sequence (P18507 40-475) above
Sequence of human GABAA receptor α2/β3/γ2 (P28472 26-473 partner): as the sequence (P28472 26-473 partner) above

[7] = target: human GABAA receptor α3/β3/γ2 (Homo sapiens, UniProt P18507+P34903); assay: SyncroPatch platform, PAM mode, GABAA α3/β3/γ2
Sequence of human GABAA receptor α3/β3/γ2 (P34903 29-492): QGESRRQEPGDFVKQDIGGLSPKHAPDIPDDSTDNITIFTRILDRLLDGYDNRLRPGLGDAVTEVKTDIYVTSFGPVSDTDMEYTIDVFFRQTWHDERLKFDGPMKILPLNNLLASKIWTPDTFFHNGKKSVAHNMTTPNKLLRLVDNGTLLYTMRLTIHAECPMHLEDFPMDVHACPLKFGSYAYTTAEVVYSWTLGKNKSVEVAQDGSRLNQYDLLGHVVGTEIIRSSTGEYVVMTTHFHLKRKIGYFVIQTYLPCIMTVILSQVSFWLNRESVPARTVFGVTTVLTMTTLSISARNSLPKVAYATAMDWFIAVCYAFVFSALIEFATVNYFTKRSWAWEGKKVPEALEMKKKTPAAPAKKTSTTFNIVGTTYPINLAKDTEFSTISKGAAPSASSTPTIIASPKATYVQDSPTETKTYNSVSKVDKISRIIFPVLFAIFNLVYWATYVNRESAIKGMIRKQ
Sequence of human GABAA receptor α3/β3/γ2 (P18507 40-475): as the sequence (P18507 40-475) above
Sequence of human GABAA receptor α3/β3/γ2 (P28472 26-473 partner): as the sequence (P28472 26-473 partner) above

[8] = target: human GABAA receptor α5/β3/γ2 (Homo sapiens, UniProt P18507+P31644); assay: SyncroPatch platform, PAM mode, GABAA α5/β3/γ2
Sequence of human GABAA receptor α5/β3/γ2 (P31644 32-462): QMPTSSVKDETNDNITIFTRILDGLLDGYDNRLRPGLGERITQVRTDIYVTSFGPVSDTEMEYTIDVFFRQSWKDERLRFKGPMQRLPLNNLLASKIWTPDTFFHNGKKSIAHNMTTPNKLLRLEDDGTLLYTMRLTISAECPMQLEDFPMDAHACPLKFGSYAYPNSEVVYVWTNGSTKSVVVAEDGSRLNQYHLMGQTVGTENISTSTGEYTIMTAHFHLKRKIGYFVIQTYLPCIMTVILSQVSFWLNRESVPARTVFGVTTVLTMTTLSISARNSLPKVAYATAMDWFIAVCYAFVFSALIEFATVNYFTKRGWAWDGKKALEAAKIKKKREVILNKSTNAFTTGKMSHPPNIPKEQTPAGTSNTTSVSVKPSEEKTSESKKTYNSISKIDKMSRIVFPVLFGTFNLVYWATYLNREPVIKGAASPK
Sequence of human GABAA receptor α5/β3/γ2 (P18507 40-475): as the sequence (P18507 40-475) above
Sequence of human GABAA receptor α5/β3/γ2 (P28472 26-473 partner): as the sequence (P28472 26-473 partner) above

[9] = tested on: sleep stages; assay: Sleep-stage analysis in wirelessly implanted rats; settings: Lorazepam 1 mg/kg IP
[10] = tested on: EEG spectral bands; assay: Pharmaco-EEG spectral analysis in wirelessly implanted rats
[11] = Frontal-Parietal cortex, Quiet Wake

## CC(C)(O)c1cnn2c(-c3ccc(F)c(-c4c(F)cccc4C#N)c3)cnc2n1 [Compound 1, 2′,6-difluoro-5′-(3-(2-hydroxypropan-2-yl)imidazo[1,2-b][1,2,4]triazin-7-yl)-[1,1′-biphenyl]-2-carbonitrile]
[1]; 5.0 mg, 1 participant
  MOAA/S score: 2
[1]; 0.5-5.0 mg oral QD 12 days
  sedation versus placebo by MOAA/S: little to no impairment of alertness and no frank sedation; also recorded: did not demonstrate a difference from placebo in sedation
[1]; other participants at 5.0 mg and all other Cohorts
  MOAA/S score: above 3
[2]; any dose level
  EEG gamma-power Pz-O2 (eyes open): No treatment effect on Pz-O2 (eyes open) for any dose level
[2]; any dose, Day 1 or Day 12
  EEG beta-power Pz-O1 or Pz-O2 (eyes open and closed): No treatment effect on Pz-O1 or Pz-O2 (eyes open and eyes dosed) at any dose on Day 1 or Day 12
[2]; dose and day in value
  EEG alpha-power Fz-Cz (eyes closed): Significant decrease in Fz-Cz (eyes dosed) at 1.5 mg, 2.0 mg, and 5.0 mg on Day 12
  EEG alpha-power Fz-Cz (eyes open): Significant decrease in Fz-Cz (eyes open) at 1.5 mg on Day 1 and at 1.5 mg, 2.0 mg, and 5.0 mg on Day 12
  EEG alpha-power Pz-O1 (eyes closed): Significant decrease in Pz-O1 (eyes closed) at 1.5 mg on Day 1 and at 1.5 mg, 2.0 mg, and 5.0 mg on Day 12
  EEG alpha-power Pz-O1 (eyes open): Significant decrease in Pz-O1 (eyes open) at 1.5 mg, 2.0 mg, and 5.0 mg on Day 12
  EEG alpha-power Pz-O2 (eyes closed): Significant decrease in Pz-O2 (eyes dosed) at 1.5 mg, 2.0 mg, and 5.0 mg on Day 12
  EEG alpha-power Pz-O2 (eyes open): Significant decrease in Pz-O2 (eyes open) at 1.5 mg, 2.0 mg, and 5.0 mg on Day 12
  EEG beta-power Fz-Cz (eyes closed): Significant increase in Fz-Cz (eyes closed) at 2.0 mg and 5.0 mg on Day 1 but at none of the doses on Day 12
  EEG beta-power Fz-Cz (eyes open): Significant increase in Fz-Cz (eyes open) at 2.0 mg and 5.0 mg on Day 1 and at 0.5 mg, 2.0 mg, and 5.0 mg on Day 12
  EEG delta-power Fz-Cz (eyes closed): Significant decrease in Fz-Cz (eyes closed) at all dose levels on Day 12
  EEG delta-power Fz-Cz (eyes open): Significant decrease in Fz-Cz (eyes open) only at 1.0 mg on Day 12
  EEG delta-power Pz-O1 (eyes closed): Significant decrease in Pz-O1 (eyes closed) at 1.0 mg, 1.5 mg, 2.0 mg, and 5.0 mg on Day 12
  EEG delta-power Pz-O1 and Pz-O2 (eyes open): Significant decrease in Pz-O1 and Pz-O2 (eyes open) at 1.5 mg, 2.0 mg, and 5.0 mg on Day 12
  EEG delta-power Pz-O2 (eyes closed): Significant decrease in Pz-O2 (eyes closed) at all dose levels on Day 12
  EEG gamma-power Fz-Cz (eyes closed and eyes open): Significant increase in Fz-Cz (eyes closed and eyes open) at 2.0 mg on Day 1 and at 2.0 mg and 5.0 mg on Day 12
  EEG gamma-power Pz-O1 (eyes closed and eyes open): Significant decrease in Pz-O1 (eyes dosed and eyes open) at 1.5 mg, 2.0 mg, and 5.0 mg on Day 1
  EEG gamma-power Pz-O2 (eyes closed): No treatment effect on Pz-O2 (eyes closed) for any dose level except for 5.0 mg on Day 12
  EEG theta-power Fz-Cz (eyes closed and eyes open): Significant decrease in Fz-Cz (eyes closed and eyes open) at 1.0 mg, 1.5 mg, 2.0 mg, and 5.0 mg on Day 12
  EEG theta-power Pz-O1 and Pz-O2 (eyes closed and eyes open): Significant decrease in Pz-O1 and Pz-O2 (eyes closed and eyes open) at 1.5 mg, 2.0 mg, and 5.0 mg on Day 12
[2]; doses >1.5 mg, Day 12
  most consistent effects on qEEG: decreased alpha- and theta-power on Day 12 that were suggestive of dose- or concentration-dependence and target engagement, but the increased beta-power on Day 12 did not suggest dose- or concentration-dependence; also recorded: decreased alpha- and theta-power, and increased beta-power
[3]; once daily for fourteen days, tested 1 hr after last dose
  anxiolytic effect, chronic dosing: anxiolytic-like in rodents after acute and sub-chronic (14 days) dosing without any loss of effect
[3]; oral
  effect compared with reference anxiolytic chlordiazepoxide: equivalent to what was demonstrated by the reference anxiolytic compound, chlordiazepoxide
[3]; oral, 0.1, 0.3 and 1 mg/kg
  distance traveled in the open arms: increased distance traveled in the open arms
[4]
  Cl- flux / activity at α1 subtype: blocking α1; also recorded: did not drive Cl-flux; also recorded: does not potentiate the α1 GABAA receptor subtype
[5]
  EC50: 0.8 nM
  Emax: 50%
[6]
  EC50: 0.82 nM
  Emax: 89%
[7]
  EC50: 2.47 nM
  Emax: 113%
[8]
  EC50: 0.2 nM
  Emax: 96%
[9]; Compound 1 1 mg/kg PO
  NREM onset: did not change NREM onset; also recorded: does not decrease time to Non-REM onset
[9]; Compound 1 PO
  Active Wake: decreased Active Wake
  NREM: increased NREM
  Quiet Wake: only Compound 1 decreased Quiet Wake
[10]; Frontal-Frontal cortex, Active and Quiet Wake
  EEG spectral power change: increased beta, low and high gamma
[10]; Frontal-Frontal cortex, NREM
  EEG spectral power change: decreased theta and alpha; also recorded: decreased delta and increased low and high gamma
[10]; Frontal-Frontal cortex, NREM, Compound 1 high dose PO, Lorazepam 1 mg/kg IP
  duration of EEG effects: 48 h
[10]; Frontal-Frontal cortex, REM
  EEG spectral power change: increased beta
[10]; Frontal-Parietal cortex, Active Wake
  EEG spectral power change: decreased alpha but increased beta, low and high gamma
[10]; Frontal-Parietal cortex, NREM
  EEG spectral power change: decreased delta, theta, and alpha; also recorded: increase in low and high gamma
  duration of delta and theta effects: 48 h
  duration of increase in low and high gamma: 48 h
[10]; [11]
  EEG spectral power change: decreased delta but increased beta, low and high gamma
  duration of EEG effects: 48 h
[10]; Frontal-Parietal cortex, REM
  EEG spectral power change: decreased theta and alpha but increased beta and low gamma
[10]; Non-REM sleep
  decrease in delta/theta power: 40%
[10]; Non-REM sleep, all doses, ANOVA w Dunnett's
  delta and theta power: significant decreases in delta and theta power across all doses
[10]; oral dosing, rats
  EEG profile: EEG changes indicative of an anxiolytic profile
[10]; sleep-wake pattern and EEG profile analysis
  sedation / anxiolytic profile: non-sedative anxiolytic profile
[10]; summary, Active Wake
  EEG spectral power change: increased low gamma and decreased alpha (Parietal ctx)
[10]; summary, Non-REM
  EEG spectral power change: suppressed power in low frequencies (Delta, Theta, and Alpha) and increased higher frequencies (gamma)
[10]; summary, Quiet Wake
  EEG spectral power change: increased beta and low gamma
[10]; summary, REM
  EEG spectral power change: increased beta
